Measurements reported in patent publication US20170029355A1, “LABILE ESTERS OF AGROCHEMICALS FOR CONTROLLED RELEASE AND REDUCTION OF OFF-SITE MOVEMENT” (Monsanto Technology LLC, priority 2011, published 2017).

Experiments:
[1] = Field dicamba volatility, airborne dicamba collected by air samplers (Example 34); type: physicochemical; details: field plot, 0.5 lb/acre dicamba a.e. with ROUNDUP WEATHERMAX, airborne dicamba collected over 24 hours, maximum 86° F.
[2] = In vitro dicamba photo-release from photo-labile dicamba esters, acetonitrile/10% water solvent (Example 27); type: physicochemical; details: acetonitrile containing 10% water
Description: This Example describes in vitro testing of dicamba photo-release by homogeneous solutions of photo-labile dicamba esters. The esters were dissolved in tetrahydrofuran (THF). Ester concentration was 0.1 mM. 25 ml of the solution was transferred to 22 mm tubes fabricated from graded seal quartz tubing with a 19/22 tapered seal at the top, which was closed with a tapered glass plug and secured with a plastic ring clamp. The solution was entirely below the quartz-to-glass transition, ensuring that the entire volume was exposed to the full spectrum.
The sealed tubes were placed in a Growth Chamber where they were exposed to simulated sunlight for 14 hours per day at 35° C. Dicamba concentrations in the solution were measured during the course of the photolysis.
A sample of the initial solution was reserved in a glass vial away from the light source and analyzed at the conclusion of the study, providing a measurement of the amount of dicamba present without illumination of the photolysis solution (the “dark control”).
This Example is another photolysis of photo-labile dicamba esters, but using acetonitrile containing 10% water by weight as the solvent. The experimental protocol is otherwise the same as in Example 18.

[3] = system: Palmer amaranth; test: Extended pre-emergent control of Palmer amaranth; type: in vivo; details: emulsifiable concentrate, 21 and 44 days after treatment
[4] = system: velvetleaf; test: Greenhouse post-emergent control of velvetleaf by emulsifiable concentrates (Example 30); type: in vivo
Description: The efficacy of some photo-labile ester formulations from Example 28 for post-emergent control of velvetleaf was tested in the greenhouse. All formulations were tested at rates of 140, 280, 420, and 560 g dicamba equivalent per hectare rates and compared to the diglycolamine salt of dicamba (CLARITY®) at the same rates and untreated control plants. The velvetleaf plants were 10-15 cm in height at the time of spraying. Percent control was evaluated three weeks after treatment.
The methodology of Example 29 was used to evaluate the efficacy of several photo-labile esters of dicamba for post-emergent control of velvetleaf as emulsifiable concentrate formulations described in Example 28.

COc1c(Cl)ccc(Cl)c1C(=O)OCc1ccccc1[N+](=O)[O-] [Ester 1a, 2-Nitrobenzyl Ester of Dicamba]
average dicamba level from the five air samplers [1]: 1.2 ng/m^3

COc1c(Cl)ccc(Cl)c1C(=O)OCCc1ccccc1[N+](=O)[O-] [Ester 2, 2-Nitrophenethyl Ester of Dicamba]
Dark Control % dicamba ([2]; no illumination): 0% | Conversion to dicamba, 1 day ([2]; simulated sunlight, 1 day): 33% | Conversion to dicamba, 2 days ([2]; simulated sunlight, 2 days): 56% | Conversion to dicamba, 3 days ([2]; simulated sunlight, 3 days): 75% | Conversion to dicamba, 5 days ([2]; simulated sunlight, 5 days): 93% | Conversion to dicamba, 7 days ([2]; simulated sunlight, 7 days): 104% | Conversion to dicamba, 11 days ([2]; simulated sunlight, 11 days): 107% | Conversion to dicamba, 13 days ([2]; simulated sunlight, 13 days): 108% | Conversion to dicamba, 15 days ([2]; simulated sunlight, 15 days): 96% | Conversion to dicamba, 19 days ([2]; simulated sunlight, 19 days): 106%

COc1c(Cl)ccc(Cl)c1C(=O)Oc1cnc2ccccc2n1 [Ester 13a, 2-quinoxalinol ester of dicamba]
extended pre-emergent control of Palmer amaranth compared with the diglycolamine salt of dicamba, in words [3]: superior extended pre-emergent control | % Control of velvetleaf, 140 g/ha ([4]; 140 g/ha): 44% | % Control of velvetleaf, 280 g/ha ([4]; 280 g/ha): 69% | % Control of velvetleaf, 420 g/ha ([4]; 420 g/ha): 70% | % Control of velvetleaf, 560 g/ha ([4]; 560 g/ha): 83%
